Series [1] has as its target T1, Acetylcholinesterase (Homo sapiens, UniProt P22303). The series can be described thus: Inhibition of human AChE using acetylthiocholine iodide as substrate preincubated for 5 mins followed by substrate addition measured over 5 mins by UV-Vis spectrophotometric analysis.
The next series concerns the target Cholinesterase (Homo sapiens, UniProt P06276). The series can be described thus: Inhibition of human serum BuChE using butyrylthiocholine iodide as substrate preincubated for 5 mins followed by substrate addition measured over 5 mins by UV-Vis spectrophotometric analysis.
The target in series [2] is T1, Acetylcholinesterase. The series can be described thus: Mixed-type inhibition of human AChE using acetylthiocholine iodide as substrate preincubated for 5 mins followed by substrate addition measured over 5 mins by Lineweaver-Burk plot analysis.
For series [3], the target named is Acetylcholinesterase (Electrophorus electricus) (UniProt O42275). The series can be described thus: Binding affinity to electric eel AChE in presence of 80 to 1216 uM donepezil by STD NMR spectroscopy method.
Acetylcholinesterase (Electrophorus electricus), sequence (O42275 24-633 limits assumed): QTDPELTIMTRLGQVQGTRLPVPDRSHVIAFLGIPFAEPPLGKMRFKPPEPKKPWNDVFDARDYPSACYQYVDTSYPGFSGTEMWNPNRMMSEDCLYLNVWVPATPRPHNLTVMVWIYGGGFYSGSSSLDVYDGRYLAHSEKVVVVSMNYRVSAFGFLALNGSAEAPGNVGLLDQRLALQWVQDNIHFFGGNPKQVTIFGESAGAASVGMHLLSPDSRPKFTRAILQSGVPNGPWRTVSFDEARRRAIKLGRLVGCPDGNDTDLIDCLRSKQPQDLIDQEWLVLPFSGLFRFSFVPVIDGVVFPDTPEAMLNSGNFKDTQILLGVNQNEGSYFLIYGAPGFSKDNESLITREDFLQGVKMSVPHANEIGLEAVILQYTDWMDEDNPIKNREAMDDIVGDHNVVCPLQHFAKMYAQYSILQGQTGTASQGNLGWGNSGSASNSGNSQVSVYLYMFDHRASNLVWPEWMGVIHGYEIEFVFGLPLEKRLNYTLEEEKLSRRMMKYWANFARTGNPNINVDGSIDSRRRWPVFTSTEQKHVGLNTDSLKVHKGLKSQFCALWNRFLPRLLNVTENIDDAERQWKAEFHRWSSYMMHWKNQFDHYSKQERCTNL
For series [4], the system named is SH-SY5Y. The series can be described thus: Cytotoxicity against human SH-SY5Y cells assessed as reduction in cell viability at 2.84 uM after 24 hrs by XTT assay. Format: cell-based.
In series [5] the test system is HepG2. In words: Cytotoxicity against human HepG2 cells assessed as reduction in cell viability at 2.84 to 5.68 uM after 24 hrs by XTT assay. Format: cell-based. The note with it: hepg2, 24 h.
For series [6], the system named is SH-SY5Y. The series can be described thus: Cytoprotection against amyloid beta (1 to 42) peptide induced cell death in human SH-SY5Y cells assessed as increase in clonogenic survival after 24 hrs by Giemsa staining-based inverted microscopic analysis. The note with it: read-out: MEC. The series is classed as functional.
The subject of series [7] is SH-SY5Y. The series can be described thus: Induction of neuronal differentiation in human SH-SY5Y cells assessed as extensive neurites formation at 0.13 uM followed by culture medium replacement for every three days for 10 days by inverted-phase microscopic analysis. The series is classed as functional, cell-based.
In series [8] the test system is SH-SY5Y. The series can be described thus: Induction of neuronal differentiation in human SH-SY5Y cells assessed as decrease in cell proliferation at 0.13 uM followed by culture medium replacement for every three days for 10 days by inverted-phase microscopic analysis. The series is classed as functional, cell-based.
Series [9] deals with SH-SY5Y. In words: Induction of neuronal differentiation in human SH-SY5Y cells assessed as neurite bearing cells at 0.13 uM followed by culture medium replacement for every three days for 10 days by inverted-phase microscopic analysis relative to control. The series is classed as functional.
Series [10] addresses T1, Acetylcholinesterase. In words: Noncompetitive inhibition of human AChE using acetylthiocholine iodide as substrate preincubated for 5 mins followed by substrate addition measured over 5 mins by Lineweaver-Burk plot analysis.
For series [11], the system named is SH-SY5Y. In words: Cytotoxicity against human SH-SY5Y cells assessed as reduction in cell viability at 0.056 uM after 24 hrs by XTT assay. Format: cell-based.
For series [12], the system named is HepG2. In words: Cytotoxicity against human HepG2 cells assessed as reduction in cell viability at 0.0035 to 0.224 uM after 24 hrs by XTT assay. Format: cell-based. The note with it: hepg2, 24 h.
Series [13] has as its system SH-SY5Y. In words: Induction of neuronal differentiation in human SH-SY5Y cells assessed as extensive neurites formation at 0.014 uM followed by culture medium replacement for every three days for 10 days by inverted-phase microscopic analysis. The series is classed as functional, cell-based.
Series [14] relates to SH-SY5Y. In words: Induction of neuronal differentiation in human SH-SY5Y cells assessed as decrease in cell proliferation at 0.014 uM followed by culture medium replacement for every three days for 10 days by inverted-phase microscopic analysis. Format: functional, cell-based.
Series [15] relates to SH-SY5Y. The series can be described thus: Induction of neuronal differentiation in human SH-SY5Y cells assessed as neurite bearing cells at 0.014 uM followed by culture medium replacement for every three days for 10 days by inverted-phase microscopic analysis relative to control. The series is classed as functional.
Series [16] has as its target Acetylcholinesterase (Electrophorus electricus) (UniProt O42275). In words: Binding affinity to electric eel AChE in presence fixed dose of donepezil by STD NMR spectroscopy method.

Calls of active or inactive are those of the source. No cut-off for these calls is given here.

The text below walks through data of ChEMBL document CHEMBL4130418, “From dual binding site acetylcholinesterase inhibitors to allosteric modulators: A new avenue for disease-modifying drugs in Alzheimer's disease” (Eur J Med Chem, 2017).

Cholinesterase, sequence (P06276 whole entry): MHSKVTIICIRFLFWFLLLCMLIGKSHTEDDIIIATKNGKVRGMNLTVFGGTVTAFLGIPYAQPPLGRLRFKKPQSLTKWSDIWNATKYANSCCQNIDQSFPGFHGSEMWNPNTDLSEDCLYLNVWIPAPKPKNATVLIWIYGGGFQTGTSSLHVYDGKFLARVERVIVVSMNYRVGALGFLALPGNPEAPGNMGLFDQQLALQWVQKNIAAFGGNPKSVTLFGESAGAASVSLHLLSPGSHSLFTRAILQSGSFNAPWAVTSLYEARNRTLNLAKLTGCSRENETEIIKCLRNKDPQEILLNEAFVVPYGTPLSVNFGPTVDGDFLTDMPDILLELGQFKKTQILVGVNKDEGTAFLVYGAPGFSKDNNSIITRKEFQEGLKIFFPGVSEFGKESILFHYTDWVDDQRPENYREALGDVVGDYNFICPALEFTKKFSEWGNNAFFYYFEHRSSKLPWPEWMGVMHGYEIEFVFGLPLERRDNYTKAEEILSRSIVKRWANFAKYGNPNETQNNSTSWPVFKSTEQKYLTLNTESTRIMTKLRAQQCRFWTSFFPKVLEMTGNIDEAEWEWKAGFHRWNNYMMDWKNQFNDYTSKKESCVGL
T1 sequence (P22303 whole entry): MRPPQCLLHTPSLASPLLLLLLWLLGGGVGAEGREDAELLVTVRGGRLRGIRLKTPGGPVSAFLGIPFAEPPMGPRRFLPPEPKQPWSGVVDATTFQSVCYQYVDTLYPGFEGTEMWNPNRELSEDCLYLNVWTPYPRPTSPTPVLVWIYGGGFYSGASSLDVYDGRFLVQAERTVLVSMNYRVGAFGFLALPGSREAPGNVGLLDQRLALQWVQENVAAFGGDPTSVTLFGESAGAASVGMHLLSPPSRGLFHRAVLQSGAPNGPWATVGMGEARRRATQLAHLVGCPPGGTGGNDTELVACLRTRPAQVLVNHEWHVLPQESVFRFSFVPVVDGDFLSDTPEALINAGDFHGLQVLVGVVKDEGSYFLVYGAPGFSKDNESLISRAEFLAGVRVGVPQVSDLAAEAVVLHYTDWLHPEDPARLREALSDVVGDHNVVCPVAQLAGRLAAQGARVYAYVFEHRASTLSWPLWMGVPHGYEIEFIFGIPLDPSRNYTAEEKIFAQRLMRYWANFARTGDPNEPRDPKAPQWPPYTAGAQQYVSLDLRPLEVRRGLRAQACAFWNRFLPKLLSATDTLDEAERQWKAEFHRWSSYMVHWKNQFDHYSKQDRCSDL

`[N-]=[N+]=Nc1cc(CN2CCC(C=O)CC2)nc2ccccc12`: the IC50 on Acetylcholinesterase [1] and against Cholinesterase was over 10 µM throughout.
Turning to `COc1cc2c(cc1OC)C(=O)/C(=C/C1CCN(Cc3cc(N=[N+]=[N-])c4ccccc4n3)CC1)C2`, the concentration for half-maximal inhibition (IC50) against Acetylcholinesterase [1] is 4.88 µM; against Cholinesterase it was over 10 µM. Also, at Acetylcholinesterase [2], the inhibition entry was “Active”. Further, the outcome in series [3] was inactive.
As for `COc1cc2c(cc1OC)C(=O)C(CC1CCN(Cc3cc(Cl)c4ccccc4n3)CC1)C2` (stereo not drawn), the figures for the IC50 against Acetylcholinesterase [1] and against Cholinesterase were over 10 µM and 5.99 µM, respectively.
With `COc1cc2c(cc1OC)C(=O)C(CC1CCN(Cc3cc(N)c4ccccc4n3)CC1)C2` (stereo not drawn), the IC50 on Acetylcholinesterase [1] amounted to 0.71 µM; against Cholinesterase, 6.54 µM. Moreover, the Activity entry was “Toxic” in the series on SH-SY5Y [4], “Non-Toxic” in the series with HepG2 [5] and 43% in the series with SH-SY5Y [9]. Besides, the minimal effective concentration in the series with SH-SY5Y [6] was 0.088 µM. Moreover, the result with SH-SY5Y [7] and with SH-SY5Y [8] was Active.
`COc1cc2c(cc1OC)C(=O)/C(=C/C1CCN(Cc3cc(N)c4ccccc4n3)CC1)C2`: the IC50 at Acetylcholinesterase [1] came out at 0.014 µM; at Cholinesterase, 3.69 µM. Moreover, the inhibition entry on Acetylcholinesterase [10] was “Active”. The Activity result was “Toxic” with SH-SY5Y [11], “Non-Toxic” with HepG2 [12] and 55% in the series with SH-SY5Y [15]. Moreover, in the series on SH-SY5Y [6], the minimal effective concentration came out at 0.0035 µM. The result (with SH-SY5Y [13]; with SH-SY5Y [14]; in series [3]; in series [16]) was Active.
For the molecule `COc1cc2c(cc1OC)C(=O)/C(=C/C1CCN(Cc3cc(Cl)c4ccccc4n3)CC1)C2`, the half-maximal inhibitory concentration (IC50) on Acetylcholinesterase [1] and on Cholinesterase was over 10 µM each time.
In the case of `OCC1CCN(Cc2cc(Cl)c3ccccc3n2)CC1`, the 50% inhibitory concentration (IC50) on Acetylcholinesterase [1] and on Cholinesterase was over 10 µM each time.
For the molecule `O=CC1CCN(Cc2cc(Cl)c3ccccc3n2)CC1`, the IC50 on Acetylcholinesterase [1] and on Cholinesterase was over 10 µM in each case.
